{"source": "patent US5068247A", "about": "“2-aminopentanoic acid compounds and their use as immunosuppressants” (priority 1989, dated 1991)", "key": {"[1]": {"system": "allo-reactive cytotoxic T cell (EL4 target cells)", "assay": "suppression of induction of allo-reactive cytotoxic T cell in mouse allogenic mixed lymphocyte culture (MLC), 51Cr release", "assay_type": "cell-based", "method": "The target cells used were leukemia cells EL4 from the syngenic (H-2^b) C57BL/6 mouse as used for preparation of the stimulator cells. By incubating 10^6 EL4 cells in the presence of 370 KBq of Na2^51 CrO4 at 37° C. for 1 hour, ^51 Cr was incorporated into the cytoplasm. The cells were washed, adjusted to the concentration of 10^4 cells/ml and used as the target cells.\nFor the assay of the cytotoxic activity, 100 μl of the effector cell suspension and 100 μl of the target cell suspension were added to a 96-well flat-bottomed microculture plate, and cultured at 37° C. for 4 hours. The amount of ^51 Cr released into the supernatant was determined and the cytotoxic activity was calculated by the following formula. [formula]\nThe activity of the cytotoxic T cell is expressed by LU (lytic unit) per 10^6 effector cells."}, "[2]": {"system": "allo-reactive cytotoxic T cells in spleen of EL4-immunized BALB/c mice", "assay": "suppression of allo-reactive cytotoxic T cells induced by immunization of mouse with allogenic cells", "assay_type": "in vivo", "method": "Male 5- to 7-week-old BALB/c mice (H-2^d) were immunized with leukemia cell EL4 derived from C57BL/6 mice (H-2^b) (10^7 cells/mouse, intraperitoneal administration), and the test substance was administered intraperitoneally 5 times at the doses of 0.001 to 3 mg/kg/day or orally at the doses of 0.3 to 10 mg/kg/day from the day of immunization. Nine to ten days after immunization, the spleen was resected from the mice to prepare a single cell suspension and the suspension was used as effector cell suspension. The ^51 Cr-release assay was carried out in the same way as in Experiment Example 3, using EL4 cells as the target cells to measure the cytotoxic activity.\nThe activity of allo-reactive cytotoxic T cell is indicated by lytic unit (LU) per spleen. One lytic unit (LU) is defined as the number of effector cells required to cause 25% lysis of 5×10^3 target cells. At the same time, the body weight of mouse and number of spleen cells were also determined."}, "[3]": {"system": "IL-2 production in mouse allogenic MLC", "assay": "suppression of IL-2 production in mouse allogenic MLC", "assay_type": "cell-based", "method": "Mouse allogenic MLC was carried out as follows:\nAfter termination of culture, the supernatant was collected and used as the supernatant of mouse allogenic MLC.\nThe IL-2 and IL-3 activities in the supernatant of mouse allogenic MLC were assayed in the same way as in Experiment Example 4."}, "[4]": {"conditions": "0.01 mg/kg/day ip × 5, Table 9A"}, "[5]": {"conditions": "0.03 mg/kg/day ip × 5, Table 9A"}}, "data": [{"smiles": "CCCCCCCCCCCCCCCC[C@@H](O)[C@H](O)[C@@](N)(CO)C(=O)O", "note": "[Example 2]", "values": [{"measurement": "Cytotoxic activity", "setting": "[1]; 0.001 μg/ml, BALB/c responder", "value": 16.0, "unit": "LU/10^6"}, {"measurement": "Cytotoxic activity", "setting": "[1]; 0.01 μg/ml, BALB/c responder", "value": 13.0, "unit": "LU/10^6"}, {"measurement": "Cytotoxic activity", "setting": "[1]; 0.1 μg/ml, BALB/c responder", "value": "< 1.0", "unit": "LU/10^6"}, {"measurement": "Cytotoxic activity", "setting": "[1]; 1 μg/ml, BALB/c responder", "value": "< 1.0", "unit": "LU/10^6"}, {"measurement": "inhibition at 0.001 µg/mL", "setting": "[1]; Mus musculus, T-cell, 144 h, 0.001 μg/ml, BALB/c responder", "value": 18.4, "unit": "%"}, {"measurement": "inhibition at 0.01 µg/mL", "setting": "[1]; Mus musculus, T-cell, 144 h, 0.01 μg/ml, BALB/c responder", "value": 33.6, "unit": "%"}, {"measurement": "inhibition at 0.1 µg/mL", "setting": "[1]; Mus musculus, T-cell, 144 h, 0.1 μg/ml, BALB/c responder", "value": "> 95", "unit": "%"}, {"measurement": "inhibition at 1 µg/mL", "setting": "[1]; Mus musculus, T-cell, 144 h, 1 μg/ml, BALB/c responder", "value": "> 95", "unit": "%"}, {"measurement": "induction of the allo-reactive cytotoxic T cell (in words), BALB/c responder", "setting": "[1]; Table 3A", "value": "markedly inhibited"}, {"measurement": "Body weight 9 days after immunization", "setting": "[2]; [4]", "value": "29.0 ± 1.7", "unit": "g"}, {"measurement": "Cytotoxic T cell activity", "setting": "[2]; [4]", "value": "724 ± 202", "unit": "LU/spleen"}, {"measurement": "Cytotoxic T cell activity, suppression", "setting": "[2]; [4]", "value": 28.5, "unit": "%"}, {"measurement": "Number of spleen cells", "setting": "[2]; [4]", "value": "3.2 ± 0.5 × 10^8 cell"}, {"measurement": "Body weight 9 days after immunization", "setting": "[2]; [5]", "value": "28.5 ± 1.0", "unit": "g"}, {"measurement": "Cytotoxic T cell activity", "setting": "[2]; [5]", "value": "536 ± 272", "unit": "LU/spleen"}, {"measurement": "Cytotoxic T cell activity, suppression", "setting": "[2]; [5]", "value": 47.0, "unit": "%"}, {"measurement": "Number of spleen cells", "setting": "[2]; [5]", "value": "2.6 ± 0.6 × 10^8 cell"}, {"measurement": "Body weight 9 days after immunization", "setting": "[2]; 0.1 mg/kg/day ip × 5, Table 9A", "value": "28.3 ± 1.4", "unit": "g"}, {"measurement": "Cytotoxic T cell activity", "setting": "[2]; 0.1 mg/kg/day ip × 5, Table 9A", "value": "527 ± 172", "unit": "LU/spleen"}, {"measurement": "Cytotoxic T cell activity, suppression", "setting": "[2]; 0.1 mg/kg/day ip × 5, Table 9A", "value": 47.9, "unit": "%"}, {"measurement": "Number of spleen cells", "setting": "[2]; 0.1 mg/kg/day ip × 5, Table 9A", "value": "2.8 ± 0.5 × 10^8 cell"}, {"measurement": "Body weight 9 days after immunization", "setting": "[2]; 0.3 mg/kg/day ip × 5, Table 9A", "value": "29.0 ± 1.8", "unit": "g"}, {"measurement": "Cytotoxic T cell activity", "setting": "[2]; 0.3 mg/kg/day ip × 5, Table 9A", "value": "525 ± 58", "unit": "LU/spleen"}, {"measurement": "Cytotoxic T cell activity, suppression", "setting": "[2]; 0.3 mg/kg/day ip × 5, Table 9A", "value": 48.1, "unit": "%"}, {"measurement": "Number of spleen cells", "setting": "[2]; 0.3 mg/kg/day ip × 5, Table 9A", "value": "3.1 ± 0.5 × 10^8 cell"}, {"measurement": "Body weight 9 days after immunization", "setting": "[2]; 0.3 mg/kg/day po × 5, Table 9B", "value": "28.0 ± 0.7", "unit": "g"}, {"measurement": "Cytotoxic T cell activity", "setting": "[2]; 0.3 mg/kg/day po × 5, Table 9B", "value": "323 ± 97", "unit": "LU/spleen"}, {"measurement": "Cytotoxic T cell activity, suppression", "setting": "[2]; 0.3 mg/kg/day po × 5, Table 9B", "value": 65.0, "unit": "%"}, {"measurement": "Number of spleen cells", "setting": "[2]; 0.3 mg/kg/day po × 5, Table 9B", "value": "1.4 ± 0.2 × 10^8"}, {"measurement": "Body weight 9 days after immunization", "setting": "[2]; 1 mg/kg/day ip × 5, Table 9A", "value": "27.3 ± 1.9", "unit": "g"}, {"measurement": "Cytotoxic T cell activity", "setting": "[2]; 1 mg/kg/day ip × 5, Table 9A", "value": "318 ± 128", "unit": "LU/spleen"}, {"measurement": "Cytotoxic T cell activity, suppression", "setting": "[2]; 1 mg/kg/day ip × 5, Table 9A", "value": 68.6, "unit": "%"}, {"measurement": "Number of spleen cells", "setting": "[2]; 1 mg/kg/day ip × 5, Table 9A", "value": "3.2 ± 0.6 × 10^8 cell"}, {"measurement": "Body weight 9 days after immunization", "setting": "[2]; 1 mg/kg/day po × 5, Table 9B", "value": "29.0 ± 1.7", "unit": "g"}, {"measurement": "Cytotoxic T cell activity", "setting": "[2]; 1 mg/kg/day po × 5, Table 9B", "value": "473 ± 92", "unit": "LU/spleen"}, {"measurement": "Cytotoxic T cell activity, suppression", "setting": "[2]; 1 mg/kg/day po × 5, Table 9B", "value": 48.7, "unit": "%"}, {"measurement": "Number of spleen cells", "setting": "[2]; 1 mg/kg/day po × 5, Table 9B", "value": "1.4 ± 0.3 × 10^8"}, {"measurement": "Body weight 9 days after immunization", "setting": "[2]; 3 mg/kg/day ip × 5, Table 9A", "value": "28.6 ± 1.7", "unit": "g"}, {"measurement": "Cytotoxic T cell activity", "setting": "[2]; 3 mg/kg/day ip × 5, Table 9A", "value": "< 50", "unit": "LU/spleen"}, {"measurement": "Cytotoxic T cell activity, suppression", "setting": "[2]; 3 mg/kg/day ip × 5, Table 9A", "value": 95.1, "unit": "%"}, {"measurement": "Number of spleen cells", "setting": "[2]; 3 mg/kg/day ip × 5, Table 9A", "value": "2.7 ± 0.4 × 10^8 cell"}, {"measurement": "Body weight 9 days after immunization", "setting": "[2]; 3 mg/kg/day po × 5, Table 9B", "value": "29.4 ± 1.5", "unit": "g"}, {"measurement": "Cytotoxic T cell activity", "setting": "[2]; 3 mg/kg/day po × 5, Table 9B", "value": "427 ± 100", "unit": "LU/spleen"}, {"measurement": "Cytotoxic T cell activity, suppression", "setting": "[2]; 3 mg/kg/day po × 5, Table 9B", "value": 53.7, "unit": "%"}, {"measurement": "Number of spleen cells", "setting": "[2]; 3 mg/kg/day po × 5, Table 9B", "value": "2.0 ± 0.3 × 10^8"}, {"measurement": "Body weight 9 days after immunization", "setting": "[2]; 10 mg/kg/day po × 5, Table 9B", "value": "27.4 ± 1.7", "unit": "g"}, {"measurement": "Cytotoxic T cell activity", "setting": "[2]; 10 mg/kg/day po × 5, Table 9B", "value": "274 ± 82", "unit": "LU/spleen"}, {"measurement": "Cytotoxic T cell activity, suppression", "setting": "[2]; 10 mg/kg/day po × 5, Table 9B", "value": 70.3, "unit": "%"}, {"measurement": "Number of spleen cells", "setting": "[2]; 10 mg/kg/day po × 5, Table 9B", "value": "1.6 ± 0.3 × 10^8"}, {"measurement": "induction of allo-reactive cytotoxic T cells (in words)", "setting": "[2]; 5 times intraperitoneal or oral", "value": "strongly suppresses the induction of allo-reactive cytotoxic T cells"}, {"measurement": "IL-2 activity", "setting": "[3]; 0.0001 μg/ml", "value": 3.9, "unit": "U/ml"}, {"measurement": "IL-2 activity", "setting": "[3]; 0.001 μg/ml", "value": 3.1, "unit": "U/ml"}, {"measurement": "IL-2 activity", "setting": "[3]; 0.01 μg/ml", "value": 3.6, "unit": "U/ml"}, {"measurement": "IL-2 activity", "setting": "[3]; 0.1 μg/ml", "value": 1, "unit": "U/ml"}, {"measurement": "IL-2 activity", "setting": "[3]; 1 μg/ml", "value": 1.6, "unit": "U/ml"}, {"measurement": "inhibition at 0.0001 µg/mL", "setting": "[3]; Mus musculus, 48 h, 0.0001 μg/ml", "value": 13.3, "unit": "%"}, {"measurement": "inhibition at 0.001 µg/mL", "setting": "[3]; Mus musculus, 48 h, 0.001 μg/ml", "value": 31.1, "unit": "%"}, {"measurement": "inhibition at 0.01 µg/mL", "setting": "[3]; Mus musculus, 48 h, 0.01 μg/ml", "value": 17.8, "unit": "%"}, {"measurement": "inhibition at 0.1 µg/mL", "setting": "[3]; Mus musculus, 48 h, 0.1 μg/ml", "value": 68.9, "unit": "%"}, {"measurement": "inhibition at 1 µg/mL", "setting": "[3]; Mus musculus, 48 h, 1 μg/ml", "value": 64.4, "unit": "%"}]}]}
